Experimental data taken from US7037656B2, “Methods and compositions for identifying ligands for nuclear receptors” (priority 2000, dated 2006).

Tests used:
Format in all cases: cell-based
Dm EcR-B1 = biological target: T1, Dm EcR-B1 (Drosophila melanogaster, UniProt P34021); assay: Yeast 6x EcRE-lacZ β-galactosidase transactivation assay; settings: RH 5992 10 μM, 4 hours, DMSO control 1.090
T1 construct: ubiquitin (human, 76 aa) (N, cleaved yes); expressed in transfected cells
Method: (§1) Briefly, yeast cells are cultured in 5 mL of YPD liquid medium overnight at 30° C. The cell culture was diluted 1:20 in YPD media and further grown until cell density reached an O.D of 0.6. at OD600. The cells were pelleted by centrifugation and washed with 10 mL of TE+0.1M lithium acetate. Cells are then resuspended in 10 mL TE+0.1M lithium acetate and incubated at 30° C. for 1 hour. Cells are collected and resuspended in 0.5 mL of TE+ 0.1M lithium acetate. Aliquots of cells (50 μL), were incubated for 15 minutes at 30° C. with 1–2 μg plasmid DNA in the presence of 5 μg of denatured salmon sperm DNA as DNA carrier. In the case of co-transformation, the indicated plasmids were added simultaneously. 50% polyethyleneglycol of molecular weight 4000, diluted in TE, was added to a final concentration of 35%. DMSO was added to the transformation solution simultaneously to a final concentration 3%. The samples were mixed well by vortexing and incubated for an additional 30 minutes at 30° C. The cell mixture is then heated for 15 minutes at 42° C. Cells were then collected and plated onto appropriate yeast selective media. Transformants of 4 plasmids are selected on the complete media without tryptophan, uracil, leucine and histidine.
(§2) The yeast cells grown overnight in selective liquid media at 30° C. were diluted in prewarmed liquid selective media to 0.1 at OD600 (ODculture). 100 μl of the cell culture was spiked to each well of a.96-well microtiter plate. Ligand (2 μl diluted in DMSO) was added to each well giving a final concentration of DMSO of 2%. As a control, 2 μl of DMSO were also added to additional test wells. The final concentration of the tested compounds in the media is 10 μM. The cells were incubated in the presence of ligand in a shaker at 30° C. After 4 hours of incubation, 100 μl of 2× “Z” Sarcosine-ONPG buffer (120 mM Na2HPO4, 80 mM NaH2PO4, 20 mM KCl, 2 mM MgSO4, 100 mM beta-mercaptoethanol (Sigma), pH 7.0, 0.4% lauroyl sarcosine (Sigma), 4 mg/mL ONPG (Diagnostic Chemicals limited) was added to each well and the plate was further incubated at 37° C. The 2× “Z” Sarcosine-ONPG buffer is freshly prepared or stored at −20° C. prior to use. After incubation at 37° C. for 1 hour. The reaction was stopped by adding 100 μL of quenching solution 0.5 M Na2CO3 and OD405 (ODreaction) and beta-galactosidase activity was measured in a micro plate reader (Biotek) at a wave length of 405–450 nanometers. The effect of copper on enhancement of the transactivation response mediated by the ligands tested was studied by adding CuSO4 to the media to a final concentration of 10 μM.
(§3) Using the transformation method set forth above, yeast were co-transformed with a reporter gene as shown in FIG. 2 and the expression vector encoding the full-length D. melanogaster ecdysone receptor, DmEcR (FIG. 3A) in the presence or absence of the Dm EcR heterodimer partner, DmUSP (FIG. 4A). Transformed cells were incubated with DMSO alone as a control or with a proprietary ecdysone receptor ligand (Rohm & Haas compound RH5992—tebufenozide) at final concentration 10 μM for 4 hours. The samples were then assayed for β-galactosidase activity as described above. […] As the N-terminal portion of the Dm EcR receptor is reported to play a role in ligand independent transactivation, an expression vector containing an N-terminal deletion in the EcR was constructed (see FIG. 3B) and assessed in the β-galactosidase assays described above. […] Restoration of ligand dependent transactivation was observed only when the DmΔN EcR, DmUSP and co-activator GRIP1 were coexpressed. See Table I. The data obtained indicate that the efficiency of ligand-dependent transactivation of the ecdysone receptor requires both heterodimer formation between EcR and USP, and proper interaction with co-activator GRIP1. […]

[1] = biological target: T2, Dm ΔN EcR + Dm ΔA/B USP + GRIP1 (Drosophila melanogaster, UniProt P34021); assay: as above; settings: RH 5992 10 μM, 4 hours, DMSO control 0.340
T2 construct: ubiquitin (human, 76 aa) (N, cleaved yes); expressed in transfected cells
T2 sequence (P34021 221-878, stated change not applied): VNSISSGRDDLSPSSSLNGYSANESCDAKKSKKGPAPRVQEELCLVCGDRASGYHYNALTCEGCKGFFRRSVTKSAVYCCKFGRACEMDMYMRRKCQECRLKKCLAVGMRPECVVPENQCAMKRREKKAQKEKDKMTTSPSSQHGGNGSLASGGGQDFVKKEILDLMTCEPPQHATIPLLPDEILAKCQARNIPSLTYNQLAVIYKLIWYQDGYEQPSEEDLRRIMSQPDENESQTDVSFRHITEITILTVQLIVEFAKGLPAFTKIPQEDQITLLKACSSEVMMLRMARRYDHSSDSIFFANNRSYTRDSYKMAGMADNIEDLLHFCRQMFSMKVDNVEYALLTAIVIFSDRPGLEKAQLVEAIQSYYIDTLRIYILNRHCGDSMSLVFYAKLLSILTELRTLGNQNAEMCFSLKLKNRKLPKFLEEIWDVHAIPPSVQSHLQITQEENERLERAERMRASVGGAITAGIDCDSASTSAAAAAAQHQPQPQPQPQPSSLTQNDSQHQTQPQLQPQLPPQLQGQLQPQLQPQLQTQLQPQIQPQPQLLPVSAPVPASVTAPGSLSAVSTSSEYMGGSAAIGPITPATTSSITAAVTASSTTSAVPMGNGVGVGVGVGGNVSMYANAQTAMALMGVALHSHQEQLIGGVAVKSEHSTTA
T2 sequence (P20153 with tags, fused parts or gaps partner): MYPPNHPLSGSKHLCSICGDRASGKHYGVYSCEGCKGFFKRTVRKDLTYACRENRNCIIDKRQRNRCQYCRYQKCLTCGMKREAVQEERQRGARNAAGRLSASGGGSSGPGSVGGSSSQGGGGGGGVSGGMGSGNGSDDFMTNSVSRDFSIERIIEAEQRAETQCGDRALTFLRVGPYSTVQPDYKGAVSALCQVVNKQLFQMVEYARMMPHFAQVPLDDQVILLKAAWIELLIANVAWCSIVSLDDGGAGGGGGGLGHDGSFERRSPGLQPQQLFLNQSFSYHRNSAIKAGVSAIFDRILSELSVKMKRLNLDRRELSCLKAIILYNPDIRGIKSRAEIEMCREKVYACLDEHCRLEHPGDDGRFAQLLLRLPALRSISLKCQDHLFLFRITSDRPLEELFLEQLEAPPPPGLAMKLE
Method: as §1, §2, §3

Dm ΔN EcR + DmUSP = biological target: T3, Dm ΔN EcR + DmUSP (Drosophila melanogaster, UniProt P34021); assay: as above; settings: 4 hours
T3 construct: ubiquitin (human, 76 aa) (N, cleaved yes); expressed in transfected cells
T3 sequence (P34021 221-878 limits assumed, stated change not applied): as the sequence (P34021 221-878, stated change not applied) above
T3 sequence (P20153 whole entry partner): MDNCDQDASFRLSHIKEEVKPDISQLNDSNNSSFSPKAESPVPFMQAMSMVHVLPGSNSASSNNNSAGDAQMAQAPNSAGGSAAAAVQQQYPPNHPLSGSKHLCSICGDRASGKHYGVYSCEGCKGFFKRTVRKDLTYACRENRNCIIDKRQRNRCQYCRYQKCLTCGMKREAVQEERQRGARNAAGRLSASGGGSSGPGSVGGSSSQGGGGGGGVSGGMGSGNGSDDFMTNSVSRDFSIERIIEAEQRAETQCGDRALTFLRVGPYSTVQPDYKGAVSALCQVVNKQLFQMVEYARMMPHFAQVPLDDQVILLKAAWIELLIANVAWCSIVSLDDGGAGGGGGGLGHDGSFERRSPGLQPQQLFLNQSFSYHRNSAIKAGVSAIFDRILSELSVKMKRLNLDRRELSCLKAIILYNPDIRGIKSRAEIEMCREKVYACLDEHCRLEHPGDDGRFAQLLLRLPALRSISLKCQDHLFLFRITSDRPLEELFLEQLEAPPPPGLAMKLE
Method: as §1, §2, §3

Dm EcR + DmUSP = biological target: T4, Dm EcR + DmUSP (Drosophila melanogaster, UniProt P34021); assay: as above; settings: RH 5992 10 μM, 4 hours, DMSO control 2.091
T4 construct: ubiquitin (human, 76 aa) (N, cleaved yes); expressed in transfected cells
T4 sequence (P34021 whole entry): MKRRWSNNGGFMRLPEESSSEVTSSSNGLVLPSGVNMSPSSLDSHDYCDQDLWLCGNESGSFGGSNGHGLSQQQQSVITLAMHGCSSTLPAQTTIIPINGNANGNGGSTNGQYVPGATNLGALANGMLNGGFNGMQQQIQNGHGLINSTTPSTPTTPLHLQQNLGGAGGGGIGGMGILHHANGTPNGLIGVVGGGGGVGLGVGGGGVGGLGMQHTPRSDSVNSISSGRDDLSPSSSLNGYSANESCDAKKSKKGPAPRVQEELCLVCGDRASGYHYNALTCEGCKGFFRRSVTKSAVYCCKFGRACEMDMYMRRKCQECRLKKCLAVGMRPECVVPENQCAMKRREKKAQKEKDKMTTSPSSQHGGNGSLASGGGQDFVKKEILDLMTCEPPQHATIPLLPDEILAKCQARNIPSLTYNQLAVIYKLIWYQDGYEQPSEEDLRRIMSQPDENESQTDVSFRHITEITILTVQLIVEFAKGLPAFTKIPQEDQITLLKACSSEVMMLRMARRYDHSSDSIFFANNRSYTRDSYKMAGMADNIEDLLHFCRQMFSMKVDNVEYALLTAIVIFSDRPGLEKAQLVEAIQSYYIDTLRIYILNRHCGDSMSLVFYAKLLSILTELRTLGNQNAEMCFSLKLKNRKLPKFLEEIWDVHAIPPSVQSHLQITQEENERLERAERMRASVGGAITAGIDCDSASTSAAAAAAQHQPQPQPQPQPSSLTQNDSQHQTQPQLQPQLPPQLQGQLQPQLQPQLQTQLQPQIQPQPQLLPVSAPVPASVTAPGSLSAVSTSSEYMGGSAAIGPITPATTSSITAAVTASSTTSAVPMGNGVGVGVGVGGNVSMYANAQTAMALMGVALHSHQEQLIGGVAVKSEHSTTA
T4 sequence (P20153 whole entry partner): as the sequence (P20153 whole entry partner) above
Method: as §1, §2, §3

[2] = biological target: T5, Dm ΔN EcR + DmUSP + GRIP1 (Drosophila melanogaster, UniProt P34021); assay: as above; settings: RH 5992 10 μM, 4 hours, DMSO control 0.424
T5 construct: ubiquitin (human, 76 aa) (N, cleaved yes); expressed in transfected cells
T5 sequence (P34021 221-878 limits assumed, stated change not applied): as the sequence (P34021 221-878, stated change not applied) above
T5 sequence (P20153 whole entry partner): as the sequence (P20153 whole entry partner) above
T5 sequence (Q61026 322-1121 partner limits assumed): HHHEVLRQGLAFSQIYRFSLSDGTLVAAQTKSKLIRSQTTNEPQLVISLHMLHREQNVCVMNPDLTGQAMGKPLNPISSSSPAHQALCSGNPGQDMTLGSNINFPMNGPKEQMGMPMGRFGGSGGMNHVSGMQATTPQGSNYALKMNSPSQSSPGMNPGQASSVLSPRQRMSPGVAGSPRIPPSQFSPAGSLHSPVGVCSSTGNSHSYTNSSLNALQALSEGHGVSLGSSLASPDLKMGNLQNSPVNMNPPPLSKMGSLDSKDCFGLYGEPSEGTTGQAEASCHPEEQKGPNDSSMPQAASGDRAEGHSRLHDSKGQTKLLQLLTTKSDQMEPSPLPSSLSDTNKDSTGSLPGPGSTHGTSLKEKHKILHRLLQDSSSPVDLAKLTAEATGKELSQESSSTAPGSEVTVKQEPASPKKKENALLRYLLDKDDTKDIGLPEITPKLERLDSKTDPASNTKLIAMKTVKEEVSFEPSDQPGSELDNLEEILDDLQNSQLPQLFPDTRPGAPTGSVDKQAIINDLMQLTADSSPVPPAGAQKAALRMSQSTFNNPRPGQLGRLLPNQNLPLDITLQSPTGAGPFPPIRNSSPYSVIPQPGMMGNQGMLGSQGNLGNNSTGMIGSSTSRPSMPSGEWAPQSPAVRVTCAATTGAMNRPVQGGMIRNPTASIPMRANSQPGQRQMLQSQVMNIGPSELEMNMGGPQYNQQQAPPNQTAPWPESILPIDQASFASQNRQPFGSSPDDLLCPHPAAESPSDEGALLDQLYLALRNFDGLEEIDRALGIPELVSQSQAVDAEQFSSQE
Method: as §1, §2, §3

[3] = biological target: T6, Aa AB EcR/Aa USPa and SMRT (Aedes aegypti, UniProt P49880); assay: Yeast 6x EcRE-lacZ reporter assay with SMRT (ligand-dependent down regulation); settings: 10 μM; Aa AB EcR/Aa USPa co-expressed with SMRT, constitutive reporter expression without ligand (FIG. 10A)
T6 construct: human ubiquitin (76 aa) (N, cleaved yes); expressed in transfected cells; host or cells: yeast (Saccharomyces cerevisiae)
T6 sequence (P49880 with tags, fused parts or gaps): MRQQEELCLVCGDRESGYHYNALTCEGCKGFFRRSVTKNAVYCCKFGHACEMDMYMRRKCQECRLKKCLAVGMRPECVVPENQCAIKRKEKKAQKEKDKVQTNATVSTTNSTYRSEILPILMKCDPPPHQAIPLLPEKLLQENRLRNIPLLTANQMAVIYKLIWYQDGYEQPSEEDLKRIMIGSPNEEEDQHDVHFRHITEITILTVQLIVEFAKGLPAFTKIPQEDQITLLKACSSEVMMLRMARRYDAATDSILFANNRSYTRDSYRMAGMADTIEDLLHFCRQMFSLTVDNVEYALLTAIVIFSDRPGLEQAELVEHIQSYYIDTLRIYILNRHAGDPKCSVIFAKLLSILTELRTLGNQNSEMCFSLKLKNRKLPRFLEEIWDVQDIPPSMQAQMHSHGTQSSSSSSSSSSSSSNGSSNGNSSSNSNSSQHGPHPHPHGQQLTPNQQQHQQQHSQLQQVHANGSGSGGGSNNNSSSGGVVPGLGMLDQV
Text: FIGS. 10A and 10B are graphs showing the roles of the coactivators and co-repressors in transactivation of AaΔEcR. Interaction of different transcriptional factors in combination with the heterodimers AaΔEcR/USPa or AaΔEcR/USPb (FIG. 10A). […] The yeast strains carrying the reporter plasmid which contains 6 EcRE response elements coupled with E. coli β gal gene in combination with the presence of different plasmids for expression of different USPs, AaΔEcR and coactivators/repressors. The final concentration of all ecdysteroid analogues was 10 μM. The data are presented as a median set of at least 8 independent experiments plus SD.
Briefly, yeast cells are cultured in 5 mL of YPD liquid medium overnight at 30° C. The cell culture was diluted 1:20 in YPD media and further grown until cell density reached an O.D of 0.6. at OD600. The cells were pelleted by centrifugation and washed with 10 mL of TE+0.1M lithium acetate. Cells are then resuspended in 10 mL TE+0.1M lithium acetate and incubated at 30° C. for 1 hour. Cells are collected and resuspended in 0.5 mL of TE+ 0.1M lithium acetate. Aliquots of cells (50 μL), were incubated for 15 minutes at 30° C. with 1–2 μg plasmid DNA in the presence of 5 μg of denatured salmon sperm DNA as DNA carrier. In the case of co-transformation, the indicated plasmids were added simultaneously. […]

T1 sequence (P34021 whole entry): as the sequence (P34021 whole entry) above

In the case of `CCc1ccc(C(=O)NN(C(=O)c2cc(C)cc(C)c2)C(C)(C)C)cc1` [RH 5992, tebufenozide], the β-galactosidase activity (Dm EcR-B1) is reported as 1.200, the β-galactosidase activity [1] is reported as 2.323 and the “transactivation of the reporter gene (in words)” value (Dm ΔN EcR + DmUSP; 10 μM, DmEcR with N-terminal deletion, DmUSP present or absent, no GRIP1) is reported as “incapable of transactivating the reporter gene”. The β-galactosidase activity (Dm ΔN EcR + DmUSP; RH 5992 10 μM, yeast, Dm ΔN EcR + DmUSP, DMSO control 0.152) was 0.182, the β-galactosidase activity (Dm EcR + DmUSP) was 1.953 and the β-galactosidase activity [2] was 2.537. The “effect on reporter gene expression (in words)” value [3] was “suppression of the levels of reporter gene expression”.
